Experimental data taken from patent US9133140B2, “Cycloalkylamne derivatives” (Daiichi Sankyo Company, Limited, priority 2008, dated 2015).
Counter-ions that a name gives are not always drawn. Like-named read-outs stand apart in the source and are kept apart here.

Columns and labels:
human CaSR = biological target: T1, human CaSR (Homo sapiens, UniProt P41180); experiment: Human CaSR activity measurement test (intracellular calcium in TT cells); assay type: cell-based; conditions: [EC50 of test compound]/[EC50 of Compound A], intracellular calcium fluorescence
T1 construct: TT cells are cell lines that express human CaSR; endogenous in cells; host or cells: TT cells (human medullary thyroid carcinoma cell line)
T1 sequence (P41180 20-1078): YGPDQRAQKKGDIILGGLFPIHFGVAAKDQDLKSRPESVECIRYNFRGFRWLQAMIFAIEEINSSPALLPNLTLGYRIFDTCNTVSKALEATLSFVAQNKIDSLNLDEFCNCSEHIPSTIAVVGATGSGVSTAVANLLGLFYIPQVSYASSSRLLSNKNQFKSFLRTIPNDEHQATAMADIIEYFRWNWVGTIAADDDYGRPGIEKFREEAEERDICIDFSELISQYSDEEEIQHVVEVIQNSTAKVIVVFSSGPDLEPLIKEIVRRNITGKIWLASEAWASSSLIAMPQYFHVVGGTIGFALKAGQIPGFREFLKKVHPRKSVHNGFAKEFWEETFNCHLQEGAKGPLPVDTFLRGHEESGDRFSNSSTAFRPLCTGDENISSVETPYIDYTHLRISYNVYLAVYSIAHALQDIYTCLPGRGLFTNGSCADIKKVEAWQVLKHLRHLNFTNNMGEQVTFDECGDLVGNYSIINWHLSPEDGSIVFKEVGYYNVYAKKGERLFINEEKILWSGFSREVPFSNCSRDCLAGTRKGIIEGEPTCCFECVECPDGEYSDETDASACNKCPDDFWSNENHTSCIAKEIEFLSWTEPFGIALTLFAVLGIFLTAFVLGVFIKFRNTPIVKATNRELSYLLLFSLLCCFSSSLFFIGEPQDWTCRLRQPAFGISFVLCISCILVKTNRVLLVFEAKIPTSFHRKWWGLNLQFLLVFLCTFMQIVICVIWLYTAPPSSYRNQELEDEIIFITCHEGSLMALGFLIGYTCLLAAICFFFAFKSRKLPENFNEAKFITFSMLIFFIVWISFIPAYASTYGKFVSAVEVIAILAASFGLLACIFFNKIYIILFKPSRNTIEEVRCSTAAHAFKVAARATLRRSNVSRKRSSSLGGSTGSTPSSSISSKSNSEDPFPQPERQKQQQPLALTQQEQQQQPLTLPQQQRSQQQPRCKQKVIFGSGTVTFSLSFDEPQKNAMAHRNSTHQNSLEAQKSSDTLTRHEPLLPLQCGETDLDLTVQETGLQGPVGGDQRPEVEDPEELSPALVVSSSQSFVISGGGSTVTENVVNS
Protocol: It is reported that human medullary thyroid carcinoma cell lines TT cells are cell lines that express human CaSR, and when CaSR is activated by extracellular calcium ions or the like, intracellular calcium ion concentration increases (Endocrinology 137: 3842-3848, 1996). Accordingly, an activating action of the test compounds with respect to human CaSR was evaluated by using the change in intracellular calcium concentration of TT cells as an indicator. TT cells were inoculated onto a black well/clear bottom 96 well plate (poly-D-lysine coat: manufactured by BD biosciences), and were cultured for approximately 24 hours in a F-12 Nutrient Mixture (Kaighn's modification) culture media containing 10% calf serum and 0.5% antibiotic antimycotic. […] Then, the plate was allowed to stand for 1 hour at 37° C. Subsequently, the above-mentioned plate was placed onto FlexStation (manufactured by Molecular Device) or FlexStation 3 (manufactured by Molecular Device), and fluorescence intensity before and after treatment with the test compound dissolved in a buffer for measurement (126 mM NaCl, 4 mM KCl, 1 mM MgCl2, 20 mM HEPES (pH 7.4), 5.6 mM glucose, 2 mM CaCl2) was measured. […] Nagano, Pharmacol. […] WO 1996/12697) as a comparative compound, by conducting a similar procedure. From the following equation, the human CaSR activity of each of the test compounds was calculated as the relative activity with respect to Compound A. Relative activity with respect to Compound A=[EC50 of test compound]/[EC50 of Compound A]

[1] = system: calcium ion concentration in the blood; experiment: Measurement test for concentration of parathyroid hormone and calcium ion in rat blood; assay type: in vivo; conditions: read-out: reduction of calcium concentration in the blood
Protocol: Three male SD rats (manufactured by Japan SLC, Inc.) were orally administered with the test compound, and effects on the concentration of parathyroid hormone (PTH) in the blood and concentration of the calcium ion in the blood were studied.
The test compound was administered by dissolving or suspending it in a 0.5% methyl cellulose 400 (MC) solution or 0.5% MC solution containing 10% of ethanol. (In addition, Compound A used in Test Example 1 was administered as a MC suspension by dosage of 30 mg/kg, and was studied as a comparative example.) Blood was collected from the jugular vein under anesthesia with halothane or isoflurane, before administration of the test compound, and 2, 4, 6 or 8 and 24 hours after administration. Calcium ion concentration in the blood was measured using cartridge EG7+(manufactured by Fuso Chemical Co., Ltd.) and i-STAT 300F (manufactured by Fuso Chemical Co., Ltd.). In addition, plasma intact PTH concentration was measured using Rat intact PTH ELISA kit (manufactured by Immutopics).
The transition of calcium ion concentration in the blood over time from before administration to 24 hours after administration of each of the test compounds was plotted, and the decrease in calcium ion concentration in the blood from the value before administration was calculated as an area value.

[2] = male SD rats, oral, 10 mg/kg, 4 hours after administration
[3] = male SD rats, oral, 4 hours after administration

Structure (SMILES) | Relative activity with respect to Compound A (human CaSR) | inhibition in vivo at 10 mg/kg [1, 2] | inhibition in vivo at 30 mg/kg ([1]; male SD rats, oral, 30 mg/kg, 4 hours after administration) | inhibition in vivo at 0.3 mg/kg [1, 3] | inhibition in vivo at 10 mg/kg ([1]; po, 4 h)
C[C@@H](NC1CC[C@@H](c2ccc(OCC(=O)O)cc2)C1)c1ccc(F)c2ccccc12 (mixture of isomers) [Example 16, {4-[(1R)-3-{[(1R)-1-(4-Fluoronaphthalen-1-yl)ethyl]amino}cyclopentyl]phenoxy}acetic acid] | 0.72 | ≥ 30% | – | – | –
C[C@@H](NCCCc1cccc(C(F)(F)F)c1)c1cccc2ccccc12 [Compound A, ((R)-1-naphthalen-1-yl-ethyl)-[3-(3-trifluoromethyl-phenyl)-propyl]-amine monohydrochloride, reference compound] | – | – | 15 to 30% | – | –
C[C@@H](N[C@H]1CC[C@@H](c2ccc(-c3nn[nH]n3)cc2)C1)c1cccc2ccccc12 [Example 3, (1S,3R)-N-[(1R)-1-(Naphthalen-1-yl)ethyl]-3-[4-(2H-tetrazol-5-yl)phenyl]cyclopentanamine hydrochloride] | 0.18 | ≥ 30% | – | – | –
C[C@@H](N[C@H]1CC[C@@H](c2cccc(CC(=O)O)c2)C1)c1cccc2ccccc12 [Example 7, {3-[(1R,3S)-3-{[(1R)-1-(Naphthalen-1-yl)ethyl]amino}cyclopentyl]phenyl}acetic acid hydrochloride] | 0.26 | ≥ 30% | – | – | –
C[C@@H](N[C@H]1CC[C@@H](c2ccc(CC(=O)O)cc2)C1)c1cccc2ccccc12 [Example 8, {4-[(1R,3S)-3-{[(1R)-1-(Naphthalen-1-yl)ethyl]amino}cyclopentyl]phenyl}acetic acid hydrochloride] | 0.61 | ≥ 30% | – | – | –
C[C@@H](N[C@H]1CC[C@@H](c2ccc(OCC(=O)O)cc2)C1)c1cccc2ccccc12 [Example 10, {4-[(1R,3S)-3-{[(1R)-1-(Naphthalen-1-yl)ethyl]amino}cyclopentyl]phenoxy}acetic acid hydrochloride] | 0.28 | ≥ 30% | – | – | –
C[C@@H](N[C@H]1CC[C@@H](c2ccc(OC(C)(C)C(=O)O)cc2)C1)c1cccc2ccccc12 [Example 11, 2-Methyl-2-{4-[(1R,3S)-3-{[(1R)-1-(naphthalen-1-yl)ethyl]amino}cyclopentyl]phenoxy}propanoic acid hydrochloride] | 0.60 | ≥ 30% | – | – | –
C[C@@H](N[C@H]1CC[C@@H](c2ccc(OC(C)(C)C(=O)O)c(F)c2)C1)c1cccc2ccccc12 [Example 15, 2-{2-Fluoro-4-[(1R,3S)-3-{[(1R)-1-(naphthalen-1-yl)ethyl]amino}cyclopentyl]phenoxy}-2-methylpropanoic acid hydrochloride] | 0.38 | ≥ 30% | – | – | –
C[C@@H](N[C@H]1CC[C@@H](c2ccc(OCC(=O)O)cc2)C1)c1ccc(F)c2cc(F)ccc12 [Example 23, {4-[(1R,3S)-3-{[(1R)-1-(4,6-Difluoronaphthalen-1-yl)ethyl]amino}cyclopentyl]phenoxy}acetic acid] | – | – | – | ≥ 20% | –
C[C@@H](N[C@H]1CC[C@@H](c2ccc(NCC(=O)O)cc2)C1)c1ccc(F)c2ccccc12 [Example 35, N-{4-[(1R,3S)-3-{[(1R)-1-(4-Fluoronaphthalen-1-yl)ethyl]amino}cyclopentyl]phenyl}glycine 0.3 hydrochloride] | – | – | – | – | ≥ 30%

Second part, led by results:

Relative activity with respect to Compound A (human CaSR) | Structure (SMILES) | inhibition in vivo at 10 mg/kg [1, 2] | inhibition in vivo at 30 mg/kg ([1]; male SD rats, oral, 30 mg/kg, 4 hours after administration) | inhibition in vivo at 0.3 mg/kg [1, 3] | inhibition in vivo at 10 mg/kg ([1]; po, 4 h)
0.30 | C[C@@H](N[C@H]1CC[C@@H](c2ccc(OCC(=O)O)cc2)C1)c1ccc(F)c2ccccc12 [Example 17, {4-[(1R,3S)-3-{[(1R)-1-(4-Fluoronaphthalen-1-yl)ethyl]amino}cyclopentyl]phenoxy}acetic acid] | ≥ 30% | – | ≥ 20% | –
0.38 | C[C@@H](NC1CC[C@@H](c2ccc(OCC(=O)O)cc2)C1)c1cccc2cc(F)ccc12 (stereo partly drawn) [Example 21, {4-[(1R)-3-{[(1R)-1-(6-Fluoronaphthalen-1-yl)ethyl]amino}cyclopentyl]phenoxy}acetic acid] | ≥ 30% | – | – | –
0.30 | C[C@@H](N[C@H]1CC[C@@H](c2cccc(CC(=O)O)c2)C1)c1ccc(F)c2ccccc12 [Example 24, {3-[(1R,3S)-3-{[(1R)-1-(4-Fluoronaphthalen-1-yl)ethyl]amino}cyclopentyl]phenyl}acetic acid hydrochloride] | ≥ 30% | – | ≥ 20% | –
0.34 | C[C@@H](N[C@H]1CC[C@@H](c2ccc(CC(=O)O)cc2)C1)c1ccc(F)c2ccccc12 [Example 25, {4-[(1R,3S)-3-{[(1R)-1-(4-Fluoronaphthalen-1-yl)ethyl]amino}cyclopentyl]phenyl}acetic acid hydrochloride] | ≥ 30% | – | ≥ 20% | –
0.59 | C[C@@H](N[C@H]1CC[C@@H](c2ccc(CCC(=O)O)cc2)C1)c1ccc(F)c2ccccc12 [Example 27, 3-{4-[(1R,3S)-3-{[(1R)-1-(4-Fluoronaphthalen-1-yl)ethyl]amino}cyclopentyl]phenyl}propanoic acid hydrochloride] | – | – | ≥ 20% | –
0.17 | C[C@@H](N[C@H]1CC[C@H](c2ccc(OCC(=O)O)cc2)C1)c1ccc(F)c2ccccc12 [Example 28, {4-[(1S,3S)-3-{[(1R)-1-(4-Fluoronaphthalen-1-yl)ethyl]amino}cyclopentyl]phenoxy}acetic acid] | – | – | ≥ 20% | –
0.31 | C[C@@H](N[C@H]1CC[C@H](c2ccc(CCC(=O)O)cc2)C1)c1ccc(F)c2ccccc12 [Example 30, 3-{4-[(1S,3S)-3-{[(1R)-1-(4-Fluoronaphthalen-1-yl)ethyl]amino}cyclopentyl]phenyl}propanoic acid hydrochloride] | – | – | ≥ 20% | –
0.36 | C[C@@H](N[C@H]1CC[C@@H](c2ccc(OC(C)(C)C(=O)O)cc2)C1)c1ccc(F)c2ccccc12 [Example 31, 2-{4-[(1R,3S)-3-{[(1R)-1-(4-Fluoronaphthalen-1-yl)ethyl]amino}cyclopentyl]phenoxy}-2-methylpropanoic acid hydrochloride] | ≥ 30% | – | ≥ 20% | –
